Laboratory results taken from patent US10513519B2, “Solid forms of (1S,4S)-4-(2-(((3S,4R)-3-fluorotetrahydro-2H-pyran-4-yl)amino)-8-((2,4,6-trichlorophenyl)amino)-9H-purin-9-yl)-1-methylcyclohexane-1-carboxamide and methods of their use” (Signal Pharmaceuticals, LLC, priority 2016, dated 2019).
pIC50: −log10 of the molar value.

Tested on: cancer cell lines
Test: Multiplexed cytotoxicity assay: cell proliferation (relative cell count IC50, GI50)
Type: cell-based
Conditions: Homo sapiens
Experimental: (§1) Cells are grown in RPMI1640, 10% FBS, 2 mM L-alanyl-L-Glutamine, 1 mM Na pyruvate or a special medium in a humidified atmosphere of 5% CO2 at 37° C. Cells are seeded into 384-well plates and incubated in a humidified atmosphere of 5% CO2 at 37° C. Compounds are added 24 h post cell seeding. At the same time, a time zero untreated cell plate is generated. After a 72 hour incubation period, cells are fixed and stained with fluorescently labeled antibodies and nuclear dye to allow visualization of nuclei, apoptotic cells and mitotic cells. Apoptotic cells are detected using an anti-active caspase-3 antibody. Mitotic cells are detected using an anti phospho-histone-3 antibody. Compounds are serially diluted 3.16-fold and assayed over 10 concentrations in a final assay concentration of 0.1% DMSO from the highest test concentration of 10 μM. Automated fluorescence microscopy was carried out using a Molecular Devices ImageXpress Micro XL high-content imager, and images are collected with a 4× objective.
(§2) Sixteen-bit TIFF images are acquired and analyzed with MetaXpress 5.1.0.41 software. Cell proliferation is measured by the signal intensity of the incorporated nuclear dye. The cell proliferation assay output is referred to as the relative cell count. To determine the cell proliferation end point, the cell proliferation data output is transformed to percentage of control (POC) using the following formula: POC=relative cell count(compound wells)/relative cell count(vehicle wells)×100
(§3) GI50 is the concentration needed to reduce the observed growth by half. This is the concentration that inhibits the growth to the level midway between growth in untreated cells and the number of cells seeded in the well (Time zero value). The IC50 values are calculated using nonlinear regression to fit data to a sigmoidal 4 point, 4 parameter One-Site dose response model, where: y(fit)=A+[(B−A)/(1+((C/x)^D))].
as §1, with “In another experiment, cells were grown” for “Cells are grown”, “Cells were” for “Cells are”, “Compounds were” for “Compounds are”, “plate was” for “plate is”, “cells were” for “cells are”, “images were” for “images are”
as §2, with “images were” for “images are”, “proliferation was” for “proliferation is”, “output was” for “output is”
as §3, with “GI50 refers to” for “GI50 is”, “This corresponds to” for “This is”, “values were” for “values are”

[1] = JIYOYE, JIYOYE (Hematopoietic and lymphoid, Lymphoma)
[2] = JeKo-1, JEKO1 (Hematopoietic and lymphoid, Lymphoma)
[3] = Jurkat, JURKAT (Hematopoietic and lymphoid, Leukemia)
[4] = K562, K562 (Hematopoietic and lymphoid, Leukemia)
[5] = KATO III, 72 h, KATOIII, Stomach
[6] = KU812, KU812 (Hematopoietic and lymphoid, Leukemia)
[7] = L-428, L428 (Hematopoietic and lymphoid, Lymphoma)
[8] = MC116, MC116 (Hematopoietic and lymphoid, Lymphoma)
[9] = MC-IXC, 72 h, MCIXC, CNS, Neuroblastoma
[10] = ME-180, 72 h, ME180, Female GU, Ovary, 72 h
[11] = MEG-01, MEG01 (Hematopoietic and lymphoid, Leukemia)
[12] = MES-SA, 72 h, MESSA, Soft Tissue, Sarcoma
[13] = MG-63, 72 h, MG63, Soft Tissue, Osteosarcoma, 72 h
[14] = MHH-PREB-1, MHHPREB1 (Hematopoietic and lymphoid, Leukemia)
[15] = MIA PaCa-2, 72 h, MIAPACA2, Pancreas, 72 h
[16] = MOLT-3, MOLT3 (Hematopoietic and lymphoid, Leukemia)
[17] = MOLT-16, MOLT16 (Hematopoietic and lymphoid, Leukemia)
[18] = MV4-11, MV411 (Hematopoietic and lymphoid, Leukemia)
[19] = Malme-3M, MALME3M (Skin, Melanoma)
[20] = NALM-6, NALM6 (Hematopoietic and lymphoid, Leukemia)
[21] = NCI-H69, 72 h, NCIH69, Lung, SCLC, 72 h
[22] = NCI-H292, 72 h, NCIH292, Lung, NSCLC, 72 h
[23] = NCI-H295R, NCIH295R (Endocrine, Adrenal gland)
[24] = NCI-H441, 72 h, NCIH441, Lung, NSCLC, 72 h
[25] = NCI-H446, 72 h, NCIH446, Lung, SCLC, 72 h
[26] = NCI-H460, 72 h, NCIH460, Lung, NSCLC, 72 h
[27] = NCI-H510A, 72 h, NCIH510A, Lung, SCLC
[28] = NCI-H520, 72 h, NCIH520, Lung, NSCLC, 72 h
[29] = NCI-H596, 72 h, NCIH596, Lung, NSCLC, 72 h
[30] = NCI-H661, 72 h, NCIH661, Lung, NSCLC, 72 h
[31] = NTERA-2-cl-D1, 72 h, NTERA2CLD1, Testis, 72 h
[32] = OE19, 72 h, OE19, Head and Neck, Esophageal, 72 h
[33] = OE33, 72 h, OE33, Head and Neck, Esophageal, 72 h
[34] = OVCAR-3, 72 h, OVCAR3, Female GU, Ovary, 72 h
[35] = PANC-1, 72 h, PANC1, Pancreas, 72 h
[36] = PSN1, 72 h, PSN1, Pancreas, 72 h
[37] = RL95-2, 72 h, RL952, Female GU, Uterus, 72 h
[38] = RPMI-6666, RPMI6666 (Hematopoietic and lymphoid, Lymphoma)
[39] = RPMI-7951, RPMI7951 (Skin, Melanoma)
[40] = RPMI-8226, 72 h, RPMI8226, Hematopoietic and lymphoid, Myeloma, 72 h
[41] = RS4-11, RS411 (Hematopoietic and lymphoid, Leukemia)
[42] = Raji, RAJI (Hematopoietic and lymphoid, Lymphoma)
[43] = Rec1, REC1 (Hematopoietic and lymphoid, Lymphoma)
[44] = SAOS-2, 72 h, SAOS2, Soft Tissue, Osteosarcoma, 72 h
[45] = SHP77, 72 h, SHP77, Lung, SCLC, 72 h
[46] = SJRH30, 72 h, SJRH30, Soft Tissue, Sarcoma, 72 h
[47] = SJSA-1, 72 h, SJSA1, Soft Tissue, Osteosarcoma, 72 h
[48] = SK-LMS-1, 72 h, SKLMS1, Soft Tissue, Sarcoma, 72 h
[49] = SK-MEL3, 72 h, SKMEL3, Skin, Melanoma, 72 h
[50] = SK-MEL-1, SKMEL1 (Skin, Melanoma)
[51] = SK-MEL-28, SKMEL28 (Skin, Melanoma)
[52] = SK-MES-1, 72 h, SKMES1, Lung, NSCLC, 72 h

Structure (SMILES): C[C@]1(C(N)=O)CC[C@@H](n2c(Nc3c(Cl)cc(Cl)cc3Cl)nc3cnc(N[C@@H]4CCOC[C@H]4F)nc32)CC1 [Compound 1, cis-4-[2-{[(3S,4R)-3-fluorooxan-4-yl]amino}-8-(2,4,6-trichloroanilino)-9H-purin-9-yl]-1-methylcyclohexane-1-carboxamide]
- GI50 [1]: 81.4 nM
- pIC50 [1]: 6.68
- GI50 [2]: 461 nM
- pIC50 [2]: 6.08
- GI50 [3]: 3340 nM
- pIC50 [3]: 5.43
- GI50 [4]: > 10000 nM
- pIC50 [4]: < 5.00
- GI50 [5]: 61.2 nM
- pIC50 [5]: 7.10
- GI50 [6]: 3 nM
- pIC50 [6]: 7.80
- GI50 [7]: 1630 nM
- pIC50 [7]: 5.46
- GI50 (LNCaP, 72 h, Prostate): 2430 nM
- pIC50 (LNCaP, 72 h, Prostate): 5.29
- GI50 (LS174T, LS174T (Colon)): 194 nM
- pIC50 (LS174T, LS174T (Colon)): 6.59
- GI50 (LS-123, LS123 (Colon)): 61 nM
- pIC50 (LS-123, LS123 (Colon)): 6.73
- GI50 (LS-411N, LS411N (Colon)): 35.8 nM
- pIC50 (LS-411N, LS411N (Colon)): 7.28
- GI50 (LS-513, LS513 (Colon)): 35.3 nM
- pIC50 (LS-513, LS513 (Colon)): 7.41
- GI50 (LS-1034, LS1034 (Colon)): 224 nM
- pIC50 (LS-1034, LS1034 (Colon)): 6.17
- GI50 (M059J, M059J (CNS, Glioma)): 612 nM
- pIC50 (M059J, M059J (CNS, Glioma)): 5.48
- GI50 [8]: 6020 nM
- pIC50 [8]: 5.19
- GI50 [9]: 2040 nM
- pIC50 [9]: 5.63
- GI50 (MCF7, MCF7 (Breast)): 636 nM
- pIC50 (MCF7, MCF7 (Breast)): 5.46
- GI50 (MDA-MB-231, MDAMB231 (Breast)): 33.9 nM
- pIC50 (MDA-MB-231, MDAMB231 (Breast)): 7.20
- GI50 (MDA-MB-415, MDAMB415 (Breast)): 729 nM
- pIC50 (MDA-MB-415, MDAMB415 (Breast)): < 5.00
- GI50 (MDA-MB-436, MDAMB436 (Breast)): 262 nM
- pIC50 (MDA-MB-436, MDAMB436 (Breast)): < 5.00
- GI50 (MDA-MB-453, MDAMB453 (Breast)): 656 nM
- pIC50 (MDA-MB-453, MDAMB453 (Breast)): 5.55
- GI50 (MDA-MB-468, MDAMB468 (Breast)): 36.3 nM
- pIC50 (MDA-MB-468, MDAMB468 (Breast)): 7.14
- GI50 [10]: > 10000 nM
- pIC50 [10]: < 5.00
- GI50 [11]: 81.8 nM
- pIC50 [11]: 6.66
- GI50 [12]: 810 nM
- pIC50 [12]: 5.96
- GI50 [13]: 108 nM
- pIC50 [13]: 6.94
- GI50 [14]: 6690 nM
- pIC50 [14]: 5.16
- GI50 [15]: 35.7 nM
- pIC50 [15]: 7.40
- GI50 [16]: 946 nM
- pIC50 [16]: 5.52
- GI50 [17]: 2880 nM
- pIC50 [17]: 5.47
- GI50 [18]: 107 nM
- pIC50 [18]: 6.74
- GI50 [19]: 3.4 nM
- pIC50 [19]: 7.92
- GI50 (MeWo, MEWO (Skin, Melanoma)): 102 nM
- pIC50 (MeWo, MEWO (Skin, Melanoma)): 6.80
- GI50 [20]: > 10000 nM
- pIC50 [20]: < 5.00
- GI50 [21]: 5000 nM
- pIC50 [21]: < 5.00
- GI50 [22]: 278 nM
- pIC50 [22]: 6.16
- GI50 [23]: > 10000 nM
- pIC50 [23]: < 5.00
- GI50 [24]: 271 nM
- pIC50 [24]: 5.90
- GI50 [25]: 327 nM
- pIC50 [25]: < 5.00
- GI50 [26]: > 10000 nM
- pIC50 [26]: < 5.00
- GI50 (NCI-H508, NCIH508 (Colon)): 28.8 nM
- pIC50 (NCI-H508, NCIH508 (Colon)): 7.32
- GI50 [27]: 3700 nM
- pIC50 [27]: 5.18
- GI50 [28]: 991 nM
- pIC50 [28]: 5.67
- GI50 [29]: 2750 nM
- pIC50 [29]: < 5.00
- GI50 [30]: 1440 nM
- pIC50 [30]: 5.58
- GI50 (NCI-H747, NCIH747 (Colon)): 12 nM
- pIC50 (NCI-H747, NCIH747 (Colon)): 7.35
- GI50 [31]: 44 nM
- pIC50 [31]: 7.29
- GI50 [32]: 340 nM
- pIC50 [32]: < 5.00
- GI50 [33]: 63 nM
- pIC50 [33]: 7.01
- GI50 [34]: > 10000 nM
- pIC50 [34]: < 5.00
- GI50 [35]: 41.6 nM
- pIC50 [35]: 7.10
- GI50 (PFSK-1, PFSK1 (CNS, Glioma)): 23.4 nM
- pIC50 (PFSK-1, PFSK1 (CNS, Glioma)): < 5.00
- GI50 [36]: 8.3 nM
- pIC50 [36]: 8.04
- GI50 (RKOE6, RKOE6 (Colon)): 75.3 nM
- pIC50 (RKOE6, RKOE6 (Colon)): 6.97
- GI50 [37]: 9 nM
- pIC50 [37]: 7.22
- GI50 [38]: 80.1 nM
- pIC50 [38]: 6.43
- GI50 [39]: 71.6 nM
- pIC50 [39]: 7.02
- GI50 [40]: 1090 nM
- pIC50 [40]: 5.61
- GI50 [41]: 359 nM
- pIC50 [41]: 5.53
- GI50 [42]: 179 nM
- pIC50 [42]: < 5.00
- GI50 [43]: 5.3 nM
- pIC50 [43]: 6.71
- GI50 [44]: 3570 nM
- pIC50 [44]: 5.16
- GI50 (SCC-4, SCC4 (Head and Neck)): 51.2 nM
- pIC50 (SCC-4, SCC4 (Head and Neck)): 6.97
- GI50 (SCC-9, SCC9 (Head and Neck)): 117 nM
- pIC50 (SCC-9, SCC9 (Head and Neck)): 6.55
- GI50 (SCC-25, SCC25 (Head and Neck)): 43.9 nM
- pIC50 (SCC-25, SCC25 (Head and Neck)): 7.29
- GI50 (SCaBER, SCABER (Bladder)): 66.5 nM
- pIC50 (SCaBER, SCABER (Bladder)): 7.11
- GI50 [45]: 4790 nM
- pIC50 [45]: 5.24
- GI50 [46]: 219 nM
- pIC50 [46]: 5.83
- GI50 [47]: 1160 nM
- pIC50 [47]: 5.61
- GI50 (SK-BR-3, SKBR3 (Breast)): 6810 nM
- pIC50 (SK-BR-3, SKBR3 (Breast)): 5.07
- GI50 [48]: 146 nM
- pIC50 [48]: 6.78
- GI50 [49]: 28.4 nM
- pIC50 [49]: 7.20
- GI50 [50]: 1 nM
- pIC50 [50]: 7.54
- GI50 [51]: 27.9 nM
- pIC50 [51]: 7.24
- GI50 [52]: 103 nM
- pIC50 [52]: 6.91
